Target: T1, EGFR L858R/T790M/C797S (Homo sapiens, UniProt P00533, C797S/L858R/T790M)
T1 construct: expressed in transfected cells; host or cells: BaF3-LTC
Assay: EGFR degradation HTRF assay in BaF3-LTC cells
Format: cell-based
Details: BaF3-LTC (L858R/T790M/C797S), maximum percentage of inhibition (degradation); read-out: BaF3-LTC Dmax (%)
Experimental: BaF3-LTC(L858R/T790M/C797S) cells and BaF3 LC(L858R/C797S) cells are treated with compounds diluted in 0.2% DMSO cell culture medium and incubate for 16 h, 37° C., 5% CO2. the final concentration of compounds in all assay is start with 10 uM, 5-fold dilution, total 8 doses were included.
After 16 h treatment, add HTRF lysis buffer to each well; seal the plate and incubate 1 hour at room temperature on a plate shaker; Once the cells are lysed, 16 μL of cell lysate are transferred to a PE 384-well HTRF detection plate; 4 μL of pre-mixed HTRF antibodies are added to each well; Cover the plate with a plate sealer, spin 1000 rpm for 1 min, Incubate overnight at room temperature; Read on BMG PheraStar with HTRF protocol (337 nm-665 nm-620 nm).
The inhibition (degradation) percentage of the compound was calculated by the following equation: Inhibition percentage of Compound=100−100×(Signal−low control)/(High control−low control), wherein signal=each test compound group
High control=Cell group with added DMSO and without compound, indicating microplate readings without EGFR degradation;
Dmax is the maximum percentage of inhibition (degradation).
The IC50 (DC50) value of a compound can be obtained by fitting the following equation
Y=Bottom+(TOP−Bottom)/(1+((IC50/X)^hillslope))
Wherein, X and Y are known values, and IC50, Hillslope, Top and Bottom are the parameters obtained by fitting with software. Y is the inhibition percentage (calculated from the equation), X is the concentration of the compound; IC50 is the concentration of the compound when the 50% inhibition is reached. The smaller the IC50 value is, the stronger the inhibitory ability of the compound is. Vice versa, the higher the IC50 value is, the weaker the inhibitory ability of the compound is; Hillslope represents the slope of the fitted curve, generally around 1*; Bottom represents the minimum value of the curve obtained by data fitting, which is generally 0%±20%; Top represents the maximum value of the curve obtained by data fitting, which is generally 100%±20%. The experimental data were fitted by calculating and analyzing with Dotmatics data analysis software.

T1 sequence (P00533 25-1210 T790M/C797S/L858R): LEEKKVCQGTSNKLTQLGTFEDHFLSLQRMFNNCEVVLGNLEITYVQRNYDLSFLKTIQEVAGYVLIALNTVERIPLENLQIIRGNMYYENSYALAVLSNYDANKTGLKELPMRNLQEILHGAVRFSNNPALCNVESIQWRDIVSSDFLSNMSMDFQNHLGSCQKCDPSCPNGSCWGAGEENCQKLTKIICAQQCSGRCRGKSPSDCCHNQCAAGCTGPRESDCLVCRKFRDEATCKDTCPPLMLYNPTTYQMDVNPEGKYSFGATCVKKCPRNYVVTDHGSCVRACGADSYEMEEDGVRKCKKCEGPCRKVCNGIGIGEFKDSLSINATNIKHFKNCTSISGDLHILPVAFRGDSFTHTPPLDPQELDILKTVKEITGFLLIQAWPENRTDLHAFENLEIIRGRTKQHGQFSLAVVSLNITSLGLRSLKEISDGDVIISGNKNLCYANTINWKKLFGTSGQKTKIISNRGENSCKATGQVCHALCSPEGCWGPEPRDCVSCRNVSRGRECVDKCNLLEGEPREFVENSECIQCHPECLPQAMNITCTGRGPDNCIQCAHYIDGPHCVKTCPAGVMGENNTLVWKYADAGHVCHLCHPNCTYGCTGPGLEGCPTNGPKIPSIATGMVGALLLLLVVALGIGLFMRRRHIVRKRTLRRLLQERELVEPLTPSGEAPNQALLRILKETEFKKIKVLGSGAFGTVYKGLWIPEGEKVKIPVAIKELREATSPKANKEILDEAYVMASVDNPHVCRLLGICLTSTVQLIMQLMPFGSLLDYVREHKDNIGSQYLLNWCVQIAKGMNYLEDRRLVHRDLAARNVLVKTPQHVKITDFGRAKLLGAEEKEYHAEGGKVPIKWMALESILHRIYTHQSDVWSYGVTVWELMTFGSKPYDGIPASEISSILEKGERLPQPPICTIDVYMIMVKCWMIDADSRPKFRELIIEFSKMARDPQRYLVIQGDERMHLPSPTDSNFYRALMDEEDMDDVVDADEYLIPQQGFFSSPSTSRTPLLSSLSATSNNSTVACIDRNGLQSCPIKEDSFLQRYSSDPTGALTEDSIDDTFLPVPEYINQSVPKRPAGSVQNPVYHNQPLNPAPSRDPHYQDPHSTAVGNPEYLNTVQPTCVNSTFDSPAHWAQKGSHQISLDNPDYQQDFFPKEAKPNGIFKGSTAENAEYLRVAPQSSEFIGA

SMILES	Dmax
CCOc1cc(N2CCC(N3CCN(C(=O)[C@H]4CN(c5cc(F)c([C@H]6CCC(=O)NC6=O)c(F)c5)CC4(C)C)CC3)CC2)c(C)cc1Nc1ncc(Br)c(Nc2ccc3nc(C)ccc3c2P(C)(C)=O)n1 [Example 727, (R)-3-(4-((R)-4-(4-(1-(4-((5-bromo-4-((5-(dimethylphosphoryl)-2-methylquinolin-6-yl)amino)pyrimidin-2-yl)amino)-5-ethoxy-2-methylphenyl)piperidin-4-yl)piperazine-1-carbonyl)-3,3-dimethylpyrrolidin-1-yl)-2,6-difluorophenyl)piperidine-2,6-dione]	97.5%
COc1cc(N2CCC(N3CCN(C(=O)[C@H]4CN(c5cc(F)c([C@H]6CCC(=O)NC6=O)c(F)c5)CC4(C)C)CC3)CC2)c(C)cc1Nc1ncc(Br)c(Nc2ccc3nc(C)c(F)cc3c2P(C)(C)=O)n1 [Example 729, (R)-3-(4-((R)-4-(4-(1-(4-((5-bromo-4-((5-(dimethylphosphoryl)-3-fluoro-2-methylquinolin-6-yl)amino)pyrimidin-2-yl)amino)-5-methoxy-2-methylphenyl)piperidin-4-yl)piperazine-1-carbonyl)-3,3-dimethylpyrrolidin-1-yl)-2,6-difluorophenyl)piperidine-2,6-dione]	97.1%
CCOc1cc(N2CCC(N3CCN(CCc4cc(F)c([C@H]5CCC(=O)NC5=O)c(F)c4)CC3)CC2)c(CC)cc1Nc1ncc(Cl)c(Nc2cc(F)c3nc(CC)ccc3c2P(C)(C)=O)n1 [Example 730, (R)-3-(4-(2-(4-(1-(4-((5-chloro-4-((5-(dimethylphosphoryl)-2-ethyl-8-fluoroquinolin-6-yl)amino)pyrimidin-2-yl)amino)-5-ethoxy-2-ethylphenyl)piperidin-4-yl)piperazin-1-yl)ethyl)-2,6-difluorophenyl)piperidine-2,6-dione]	83.7%
COc1cc(N2CCC(N3CCN(C(=O)[C@@H]4CCN(c5cc(F)c([C@H]6CCC(=O)NC6=O)c(F)c5)C4)CC3)CC2)c(C)cc1Nc1ncc(Br)c(Nc2ccc3nc(C)c(F)cc3c2P(C)(C)=O)n1 [Example 732, (R)-3-(4-((R)-3-(4-(1-(4-((5-bromo-4-((5-(dimethylphosphoryl)-3-fluoro-2-methylquinolin-6-yl)amino)pyrimidin-2-yl)amino)-5-methoxy-2-methylphenyl)piperidin-4-yl)piperazine-1-carbonyl)pyrrolidin-1-yl)-2,6-difluorophenyl)piperidine-2,6-dione]	95.5%
CCOc1cc(N2CCC(N3CCN(CCc4cccc5c4n(CC)c(=O)n5C4CCC(=O)NC4=O)CC3)CC2)c(CC)cc1Nc1ncc(Br)c(Nc2ccc3nc(CC)ncc3c2P(C)(C)=O)n1 (stereo not drawn) [Example 737, 3-(4-(2-(4-(1-(4-((5-bromo-4-((5-(dimethylphosphoryl)-2-ethylquinazolin-6-yl)amino)pyrimidin-2-yl)amino)-5-ethoxy-2-ethylphenyl)piperidin-4-yl)piperazin-1-yl)ethyl)-3-ethyl-2-oxo-2,3-dihydro-1H-benzo[d]imidazol-1-yl)piperidine-2,6-dione]	97.7%
CCOc1cc(N2CCC(N3CCN(CCc4cc(F)c([C@H]5CCC(=O)NC5=O)c(F)c4)CC3)CC2)c(CC)cc1Nc1ncc(Br)c(Nc2ccc3nc(C)ncc3c2P(C)(C)=O)n1 [Example 738, (R)-3-(4-(2-(4-(1-(4-((5-bromo-4-((5-(dimethylphosphoryl)-2-methylquinazolin-6-yl)amino)pyrimidin-2-yl)amino)-5-ethoxy-2-ethylphenyl)piperidin-4-yl)piperazin-1-yl)ethyl)-2,6-difluorophenyl)piperidine-2,6-dione]	95.7%
CCc1cc(Nc2ncc(Br)c(Nc3ccc4nc(C)ncc4c3P(C)(C)=O)n2)c(OC)cc1N1CCC(N2CCN(C(=O)[C@H]3CN(c4cc(F)c([C@H]5CCC(=O)NC5=O)c(F)c4)CC3(C)C)CC2)CC1 [Example 740, (R)-3-(4-((R)-4-(4-(1-(4-((5-bromo-4-((5-(dimethylphosphoryl)-2-methylquinazolin-6-yl)amino)pyrimidin-2-yl)amino)-2-ethyl-5-methoxyphenyl)piperidin-4-yl)piperazine-1-carbonyl)-3,3-dimethylpyrrolidin-1-yl)-2,6-difluorophenyl)piperidine-2,6-dione]	97.2%

Further lines, results first:

Dmax	SMILES
95.6%	CCOc1cc(N2CCC(N3CCN(CC4CN(c5cc(F)c([C@H]6CCC(=O)NC6=O)c(F)c5)C4)CC3)CC2)c(CC)cc1Nc1ncc(Br)c(Nc2ccc3nc(CC)ccc3c2P(C)(C)=O)n1 [Example 541, (R)-3-(4-(3-((4-(1-(4-((5-bromo-4-((5-(dimethylphosphoryl)-2-ethylquinolin-6-yl)amino)pyrimidin-2-yl)amino)-5-ethoxy-2-ethylphenyl)piperidin-4-yl)piperazin-1-yl)methyl)azetidin-1-yl)-2,6-difluorophenyl)piperidine-2,6-dione]
95.9%	CCOc1cc(N2CCC(N3CCN(CCc4c(F)ccc5c4n(CC)c(=O)n5C4CCC(=O)NC4=O)CC3)CC2)c(CC)cc1Nc1ncc(Br)c(Nc2ccc3nc(CC)ccc3c2P(C)(C)=O)n1 (stereo not drawn) [Example 558, 3-(4-(2-(4-(1-(4-((5-bromo-4-((5-(dimethylphosphoryl)-2-ethylquinolin-6-yl)amino)pyrimidin-2-yl)amino)-5-ethoxy-2-ethylphenyl)piperidin-4-yl)piperazin-1-yl)ethyl)-3-ethyl-5-fluoro-2-oxo-2,3-dihydro-1H-benzo[d]imidazol-1-yl)piperidine-2,6-dione]
91.7%	[2H]C1([2H])CC([2H])(c2c(F)cc(CCN3CCN(C4CCN(c5cc(OCC)c(Nc6ncc(Br)c(Nc7ccc8nc(C)ccc8c7P(C)(C)=O)n6)cc5CC)CC4)CC3)cc2F)C(=O)NC1=O (stereo not drawn) [Example 570, 3-(4-(2-(4-(1-(4-((5-bromo-4-((5-(dimethylphosphoryl)-2-methylquinolin-6-yl)amino)pyrimidin-2-yl)amino)-5-ethoxy-2-ethylphenyl)piperidin-4-yl)piperazin-1-yl)ethyl)-2,6-difluorophenyl)piperidine-2,6-dione-3,5,5-d3]
95.3%	CCOc1cc(N2CCC(N3CCN(CCc4cc(F)c([C@H]5CCC(=O)NC5=O)c(F)c4)CC3)CC2)c(CC)cc1Nc1ncc(Br)c(Nc2ccc3nc(C)c(F)cc3c2P(C)(C)=O)n1 [Example 728, (R)-3-(4-(2-(4-(1-(4-((5-bromo-4-((5-(dimethylphosphoryl)-3-fluoro-2-methylquinolin-6-yl)amino)pyrimidin-2-yl)amino)-5-ethoxy-2-ethylphenyl)piperidin-4-yl)piperazin-1-yl)ethyl)-2,6-difluorophenyl)piperidine-2,6-dione]
80.3%	CCOc1cc(N2CCC(N3CCN(CCc4c(F)cc(F)c5c4oc(=O)n5C4CCC(=O)NC4=O)CC3)CC2)c(CC)cc1Nc1ncc(Br)c(Nc2ccc3nc(CC)ccc3c2P(C)(C)=O)n1 (stereo not drawn) [Example 731, 3-(7-(2-(4-(1-(4-((5-bromo-4-((5-(dimethylphosphoryl)-2-ethylquinolin-6-yl)amino)pyrimidin-2-yl)amino)-5-ethoxy-2-ethylphenyl)piperidin-4-yl)piperazin-1-yl)ethyl)-4,6-difluoro-2-oxobenzo[d]oxazol-3(2H)-yl)piperidine-2,6-dione]
89.5%	CCOc1cc(N2CCC(N3CCN(CCc4cc(F)c([C@H]5CCC(=O)NC5=O)c(F)c4)CC3)CC2)c(CC)cc1Nc1ncc(C)c(Nc2cc(F)c3nc(CC)ccc3c2P(C)(C)=O)n1 [Example 733, (R)-3-(4-(2-(4-(1-(4-((4-((5-(dimethylphosphoryl)-2-ethyl-8-fluoroquinolin-6-yl)amino)-5-methylpyrimidin-2-yl)amino)-5-ethoxy-2-ethylphenyl)piperidin-4-yl)piperazin-1-yl)ethyl)-2,6-difluorophenyl)piperidine-2,6-dione]
97%	CCOc1cc(N2CCC(N3CCN(CCc4c(F)ccc5c4n(C)c(=O)n5C4CCC(=O)NC4=O)CC3)CC2)c(CC)cc1Nc1ncc(Br)c(Nc2ccc3nc(CC)ncc3c2P(C)(C)=O)n1 (stereo not drawn) [Example 736, 3-(4-(2-(4-(1-(4-((5-bromo-4-((5-(dimethylphosphoryl)-2-ethylquinazolin-6-yl)amino)pyrimidin-2-yl)amino)-5-ethoxy-2-ethylphenyl)piperidin-4-yl)piperazin-1-yl)ethyl)-5-fluoro-3-methyl-2-oxo-2,3-dihydro-1H-benzo[d]imidazol-1-yl)piperidine-2,6-dione]
95.7%	CCc1cc(Nc2ncc(Br)c(Nc3ccc4nc(C)ncc4c3P(C)(C)=O)n2)c(OC)cc1N1CCC(N2CCN(CCc3cc(F)c([C@H]4CCC(=O)NC4=O)c(F)c3)CC2)CC1 [Example 739, (R)-3-(4-(2-(4-(1-(4-((5-bromo-4-((5-(dimethylphosphoryl)-2-methylquinazolin-6-yl)amino)pyrimidin-2-yl)amino)-2-ethyl-5-methoxyphenyl)piperidin-4-yl)piperazin-1-yl)ethyl)-2,6-difluorophenyl)piperidine-2,6-dione]

— patent US20230248834A1, “DEGRADATION OF (EGFR) BY CONJUGATION OF EGFR INHIBITORS WITH E3 LIGASE LIGAND AND METHODS OF USE” (BEIGENE, LTD., priority 2020, published 2023)
